Results as given in patent US8551999B2, “Heterocyclic compound and pharmaceutical composition thereof” (Otsuka Pharmaceutical Co., Ltd., priority 2007, dated 2013).

| melting point [°C] | Structure (SMILES) |
| --- | --- |
| 161 to 163 | COc1ccc(CN2CCN(C(=O)c3cc4cc(Oc5ccc(NC(=O)c6ccc(C(F)(F)F)cc6)cn5)ccc4n3C)[C@H](C)C2)cc1.O=C(O)C(=O)O [Example 393, N-(6-{2-[(R)-4-(4-Methoxybenzyl)-2-methylpiperazine-1-carbonyl]-1-methyl-1H-indol-5-yloxy}pyridin-3-yl)-4-trifluoromethyl-benzamide oxalate] |
| 159 to 160 | COc1ccc(CN2CCN(C(=O)c3cc4cc(Oc5ccc(NC(=O)c6ccc(C(F)(F)F)cc6)cn5)ccc4n3C)[C@@H](C)C2)cc1.O=C(O)C(=O)O [Example 396, N-(6-{2-[(S)-4-(4-Methoxybenzyl)-2-methylpiperazine-1-carbonyl]-1-methyl-1H-indol-5-yloxy}pyridin-3-yl)-4-trifluoromethyl-benzamide oxalate] |
| 126 to 127 | C[C@H]1CN(Cc2ccccn2)CCN1C(=O)c1cc2cc(Oc3ccc(NC(=O)c4ccc(C(F)(F)F)cc4)cn3)ccc2n1C.O=C(O)C(=O)O.O=C(O)C(=O)O [Example 397, N-{6-[1-Methyl-2-((S)-2-methyl-4-pyridin-2-ylmethylpiperazine-1-carbonyl)-1H-indol-5-yloxy]pyridin-3-yl}-4-trifluoromethyl-benzamide dioxalate] |
| 229 to 231 | Br.Cn1c(C(=O)N2CCN(Cc3ccc(OC(F)F)cc3)CC2)cc2cc(Oc3ccc(NC(=O)c4ccc(C(F)(F)F)cc4)cn3)ccc21 [Example 400, N-(6-{2-[4-(4-Difluoromethoxybenzyl)piperazine-1-carbonyl]-1-methyl-1H-indol-5-yloxy}pyridin-3-yl)-4-trifluoromethylbenzamide hydrobromide] |
| 255 to 257 | Br.Cn1c(C(=O)N2CCN(Cc3ccc(OC(F)(F)C(F)F)cc3)CC2)cc2cc(Oc3ccc(NC(=O)c4ccc(C(F)(F)F)cc4)cn3)ccc21 [Example 402, N-[6-(1-Methyl-2-{4-[4-(1,1,2,2-tetrafluoroethoxy)benzyl]-piperazine-1-carbonyl}-1H-indol-5-yloxy)pyridin-3-yl]-4-tri-fluoromethylbenzamide hydrobromide] |
| 215 to 217 | Br.Br.Cc1cc(Oc2ccc3c(c2)cc(C(=O)N2CCN(Cc4cccnc4)CC2)n3C)ncc1NC(=O)c1ccc(C(F)(F)F)cc1 [Example 404, N-{4-Methyl-6-[1-methyl-2-(4-pyridin-3-ylmethylpiperazine-1-carbonyl)-1H-indol-5-yloxy]pyridin-3-yl}-4-trifluoromethyl-benzamide dihydrobromide] |
| 241 to 245 | Br.Cn1c(C(=O)N2CCN(Cc3ccc(OCC(F)F)cc3)CC2)cc2cc(Oc3ccc(NC(=O)c4ccc(Cl)c(Cl)c4)cn3)ccc21 [Example 407, 3,4-Dichloro-N-[6-(2-{4-[4-(2,2-difluoroethoxy)benzyl]piperazine-1-carbonyl}-1-methyl-1H-indol-5-yloxy)pyridin-3-yl]benzamide hydrobromide] |
| 152 to 154 | CN(C(=O)c1ccc(C(F)(F)F)cc1)c1ccc(Oc2ccc3c(c2)cc(C(=O)N2CCN(Cc4ccc(OCCF)cc4)CC2)n3C)nc1.O=C(O)/C=C\C(=O)O [Example 408, N-[6-(2-{4-[4-(2-Fluoroethoxy)benzyl]piperazine-1-carbonyl}-1-methyl-1H-indol-5-yloxy)pyridin-3-yl]-N-methyl-4-trifluoromethyl-benzamide maleate] |
| 240 to 243 | Br.Cn1c(C(=O)N2CCN(Cc3ccc(OCCF)cc3)CC2)cc2cc(Oc3ccc(NC(=O)c4ccc(Cl)c(Cl)c4)cn3)ccc21 [Example 409, 3,4-Dichloro-N-[6-(2-{4-[4-(2-fluoroethoxy)benzyl]piperazine-1-carbonyl}-1-methyl-1H-indol-5-yloxy)pyridin-3-yl]benzamide hydrobromide] |
| 140 to 142 | CC(C)Oc1ccc(CN2CCN(C(=O)c3cc4cc(Oc5ccc(N(C)C(=O)c6ccc(C(F)(F)F)cc6)cn5)ccc4n3C)CC2)cc1.O=C(O)/C=C\C(=O)O [Example 410, N-(6-{2-[4-(4-Isopropoxybenzyl)piperazine-1-carbonyl]-1-methyl-1H-indol-5-yloxy}pyridin-3-yl)-N-methyl-4-trifluoromethyl-benzamide maleate] |
| 132 to 134 | CCCc1ccc(CN2CCN(C(=O)c3cc4cc(Oc5ccc(N(C)C(=O)c6ccc(C(F)(F)F)cc6)cn5)ccc4n3C)CC2)cc1.O=C(O)/C=C\C(=O)O [Example 411, N-Methyl-N-(6-{1-methyl-2-[4-(4-propylbenzyl)piperazine-1-carbonyl]-1H-indol-5-yloxy}pyridin-3-yl)-4-trifluoromethyl-benzamide maleate] |
| 129 to 131 | CC(C)c1ccc(CN2CCN(C(=O)c3cc4cc(Oc5ccc(N(C)C(=O)c6ccc(C(F)(F)F)cc6)cn5)ccc4n3C)CC2)cc1.O=C(O)/C=C\C(=O)O [Example 412, N-(6-{2-[4-(4-Isopropylbenzyl)piperazine-1-carbonyl]-1-methyl-1H-indol-5-yloxy}pyridin-3-yl)-N-methyl-4-trifluoromethylbenzamide maleate] |
| 144 to 147 | CCCOc1ccc(CN2CCN(C(=O)c3cc4cc(Oc5ccc(N(C)C(=O)c6ccc(C(F)(F)F)cc6)cn5)ccc4n3C)CC2)cc1.O=C(O)/C=C\C(=O)O [Example 413, N-Methyl-N-(6-{1-methyl-2-[4-(4-propoxybenzyl)piperazine-1-carbonyl]-1H-indol-5-yloxy}pyridin-3-yl)-4-trifluoromethyl-benzamide maleate] |
| 125 to 126 | CCCCCCCCOc1ccc(CN2CCN(C(=O)c3cc4cc(Oc5ccc(N(C)C(=O)c6ccc(C(F)(F)F)cc6)cn5)ccc4n3C)CC2)cc1.O=C(O)/C=C\C(=O)O [Example 414, N-Methyl-N-(6-{1-methyl-2-[4-(4-octyloxybenzyl)piperazine-1-carbonyl]-1H-indol-5-yloxy}pyridin-3-yl)-4-trifluoromethyl-benzamide maleate] |
| 137 to 139 | COCc1ccc(CN2CCN(C(=O)c3cc4cc(Oc5ccc(N(C)C(=O)c6ccc(C(F)(F)F)cc6)cn5)ccc4n3C)CC2)cc1.O=C(O)/C=C\C(=O)O [Example 415, N-(6-{2-[4-(4-Methoxymethylbenzyl)piperazine-1-carbonyl]-1-methyl-1H-indol-5-yloxy}pyridin-3-yl)-N-methyl-4-trifluoromethyl-benzamide maleate] |
| 147 to 149 | CC(C)Cc1ccc(CN2CCN(C(=O)c3cc4cc(Oc5ccc(N(C)C(=O)c6ccc(C(F)(F)F)cc6)cn5)ccc4n3C)CC2)cc1.O=C(O)/C=C\C(=O)O [Example 416, N-(6-{2-[4-(4-Isobutylbenzyl)piperazine-1-carbonyl]-1-methyl-1H-indol-5-yloxy}pyridin-3-yl)-N-methyl-4-trifluoromethylbenzamide maleate] |
| 234 to 236 | Br.CCOc1cccc(CN2CCN(C(=O)c3cc4ccc(Oc5ccc(N(C)C(=O)c6ccc(C(F)(F)F)cc6)cn5)cc4n3C)CC2)c1 [Example 418, N-(6-{2-[4-(3-Ethoxybenzyl)piperazine-1-carbonyl]-1-methyl-1H-indol-6-yloxy}pyridin-3-yl)-N-methyl-4-trifluoromethylbenzamide hydrobromide] |
